In data set [1] the test system is DH10B harboring pBLAM-YQRS and pACYsupA38. Description: cell toxicity screen of unnatural amino acids in glycerol minimal media. It is filed as cell-based, E. coli. To be noted: concentration used as lethal allele at IC50 level.
Excerpt: For example, a variety of unnatural amino acids are optionally screened in minimal media for toxicity to cells. Toxicities are typically sorted into five groups: (1) no toxicity, in which no significant change in doubling times occurs; (2) low toxicity, in which doubling times increase by less than about 10%; (3) moderate toxicity, in which doubling times increase by about 10% to about 50%; (4) high toxicity, in which doubling times increase by about 50% to about 100%; and (5) extreme toxicity, in which doubling times increase by more than about 100%. […] The toxicity of the amino acids scoring as highly or extremely toxic is typically measured as a function of their concentration to obtain IC50 values.
A variety of unnatural amino acids and α-hydroxy acids of interest, obtained commercially or by short syntheses from available starting materials (I. Shin, B. Herberich, A. Varvak, T. Magliery, P. Schultz, unpublished results, were screened for cell toxicity). […] Each amino acid wasscreened at 1 mM in glycerol minimal media for toxicity to cells, e.g., to DH10B harboring pBLAM-YQRS and pACYsupA38.
The toxicity of amino acids scoring as highly or extremely toxic is typically measured as a function of their concentration to obtain IC50 values. […]
Data set [2] has as its system glutamine uptake pathway of DH10B. In words: complementation of toxic glutamine alleles S27 and S47 (cellular uptake). It is filed as cell-based, E. coli. As to conditions: 2 mM, complementation of S27 (100 μM) and S47 (30 μM). The text has this:
To identify possible uptake pathways for toxic amino acids, toxicity assays are optionally repeated at IC50 levels, e.g., in media supplemented with an excess of a structurally similar natural amino acid. For toxic amino acids, the presence of excess natural amino acid typically rescues the ability of the cells to grow in the presence of the toxin, presumably because the natural amino acid effectively outcompetes the toxin for either cellular uptake or for binding to essential enzymes. In these cases, the toxic amino acid is optionally assigned a possible uptake pathway and labeled a “lethal allele” whose complementation is required for cell survival. These lethal alleles are extremely useful for assaying the ability of cells to uptake nontoxic unnatural amino acids. […] A lack of complementation is inconclusive. For example studies and conclusions see the examples provided below.
For toxic amino acids, the presence of excess natural amino acid rescued the ability of the cells to grow in the presence of the toxin, presumably because the natural amino acid effectively outcompeted the toxin for either cellular uptake or for binding to essential enzymes. […]
Using this method, the ability of 22 glutamine and glutamic acid analogs to be taken up by DH10B was evaluated. […]

This note sets out measurements from patent publication US8173392B2, “In vivo incorporation of unnatural amino acids” (The Scripps Research Institute, priority 2001, dated 2012).

The IC50 is the concentration at which inhibition is half-maximal. Read a high IC50 as lower potency. Consider `NNC(=O)CCC(N)C(=O)O` (centres unmarked) [S47], for which it took 30 µM to reach half-maximal inhibition in data set [1] (IC50). Besides, in data set [2], the “cellular uptake, possibly via the glutamine uptake pathway” value is “uptaken by cells”.
